Measurements as given in ChEMBL document CHEMBL4699634, “Series of Novel and Highly Potent Cyclic Peptide PCSK9 Inhibitors Derived from an mRNA Display Screen and Optimized via Structure-Based Design” (J Med Chem, 2020).
Numbered stars: 1 amine (or outer) side, 2 acyl side, 3 side chain; on linkers, the order of the positions; unused ones are H or OH. Bridge positions count the residues as written; N and C are the ends. Square brackets hold non-standard residues; d marks the D form. Peptide text beside a SMILES is read from it. ξ: configuration not given here. Trp(5-F) = N[C@@H](Cc1c[nH]c2ccc(F)cc12)C(=O)O; mXylylene(5-F) = Fc1cc(C[*:1])cc(C[*:2])c1; X4 = CC(N[*:1])(C(=O)[*:2])c1cccc2ccccc12; X1 = O=C(CCSCc1cccc(CSCCN[*:1])c1)[*:2]; mXylylene = c1cc(C[*:1])cc(C[*:2])c1; NMeY = CN[C@@H](Cc1ccc(O)cc1)C(=O)O; NMeH = CN[C@@H](Cc1c[nH]cn1)C(=O)O; NMeD = CN[C@@H](CC(=O)O)C(=O)O; NMeK = CN[C@@H](CCCCN)C(=O)O; ξhPhe = NC(CCc1ccccc1)C(=O)O; αMeP = C[C@@]1(C(=O)O)CCCN1; NMeC = CN[C@@H](CS)C(=O)O; Pip = O=C(O)[C@@H]1CCCCN1; Aze = O=C(O)[C@@H]1CCN1; Mpa = O=C(O)CCS; Sar = CNCC(=O)O

Assays:
[1] = molecular target: Proprotein convertase subtilisin/kexin type 9 (Homo sapiens, UniProt Q8NBP7); assay: Inhibition of AlexaFluor647-tagged cyclic peptide binding to avi-tagged-biotinylated human PCSK9 measured after 2 hrs by Lance Streptavidin Europium based FRET assay
Sequence of Proprotein convertase subtilisin/kexin type 9 (Q8NBP7 31-152 limits assumed): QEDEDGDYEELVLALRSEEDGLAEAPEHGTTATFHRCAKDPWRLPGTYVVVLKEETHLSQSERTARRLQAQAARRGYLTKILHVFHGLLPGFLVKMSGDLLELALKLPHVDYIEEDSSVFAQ
Sequence of Proprotein convertase subtilisin/kexin type 9 (Q8NBP7 153-692 limits assumed): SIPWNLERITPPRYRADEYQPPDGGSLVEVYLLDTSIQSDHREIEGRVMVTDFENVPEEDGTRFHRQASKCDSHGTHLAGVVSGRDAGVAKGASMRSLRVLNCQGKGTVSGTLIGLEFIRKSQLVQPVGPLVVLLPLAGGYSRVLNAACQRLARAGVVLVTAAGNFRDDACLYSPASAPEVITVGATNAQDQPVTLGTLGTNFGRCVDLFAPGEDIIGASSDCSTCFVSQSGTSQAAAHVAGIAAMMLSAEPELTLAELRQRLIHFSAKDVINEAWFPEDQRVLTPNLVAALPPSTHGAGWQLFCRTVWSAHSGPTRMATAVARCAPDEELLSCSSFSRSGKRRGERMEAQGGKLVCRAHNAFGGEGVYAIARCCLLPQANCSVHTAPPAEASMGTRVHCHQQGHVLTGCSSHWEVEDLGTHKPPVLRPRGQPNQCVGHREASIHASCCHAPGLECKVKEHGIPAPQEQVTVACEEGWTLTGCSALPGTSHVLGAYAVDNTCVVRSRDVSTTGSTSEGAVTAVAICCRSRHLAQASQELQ

PCSK9/LDLR = PCSK9/LDLR (Homo sapiens, UniProt Q8NBP7); assay: Inhibition of avi-tagged-biotinylated human PCSK9 interaction with His-tagged human LDLR EGFa domain by LANCE Ulight Streptavidin based TR-FRET assay; type: protein assay
Sequence of PCSK9/LDLR (Q8NBP7 31-152 limits assumed): as the sequence (Q8NBP7 31-152 limits assumed) above
Sequence of PCSK9/LDLR (Q8NBP7 153-692 limits assumed): as the sequence (Q8NBP7 153-692 limits assumed) above
Sequence of PCSK9/LDLR (P01130 22-860 partner limits assumed): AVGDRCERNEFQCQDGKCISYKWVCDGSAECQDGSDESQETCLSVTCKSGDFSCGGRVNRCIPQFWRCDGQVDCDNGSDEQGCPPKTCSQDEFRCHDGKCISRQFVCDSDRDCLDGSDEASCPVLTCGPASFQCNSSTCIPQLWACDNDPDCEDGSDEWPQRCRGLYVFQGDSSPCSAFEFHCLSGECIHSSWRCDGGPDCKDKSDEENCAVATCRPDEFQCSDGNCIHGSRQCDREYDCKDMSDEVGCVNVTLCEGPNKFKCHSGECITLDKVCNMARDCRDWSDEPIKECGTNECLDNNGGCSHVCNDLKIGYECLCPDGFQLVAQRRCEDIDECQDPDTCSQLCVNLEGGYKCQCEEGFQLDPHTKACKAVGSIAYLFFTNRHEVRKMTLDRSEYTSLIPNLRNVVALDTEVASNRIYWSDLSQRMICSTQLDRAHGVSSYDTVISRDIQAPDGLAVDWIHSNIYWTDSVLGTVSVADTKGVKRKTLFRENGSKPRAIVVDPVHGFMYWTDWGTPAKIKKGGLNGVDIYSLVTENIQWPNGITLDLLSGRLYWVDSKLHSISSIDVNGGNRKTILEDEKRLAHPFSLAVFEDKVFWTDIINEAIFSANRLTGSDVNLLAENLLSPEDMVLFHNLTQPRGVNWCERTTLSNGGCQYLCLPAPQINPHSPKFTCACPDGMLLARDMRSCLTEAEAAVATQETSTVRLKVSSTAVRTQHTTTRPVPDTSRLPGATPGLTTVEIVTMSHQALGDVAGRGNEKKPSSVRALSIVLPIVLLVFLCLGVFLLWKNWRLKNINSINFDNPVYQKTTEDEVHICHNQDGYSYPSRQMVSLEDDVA

Row | Ki [1] [nM] | Ki (PCSK9/LDLR) [nM] | Structure (SMILES)
1 | 44.2 | – | COc1ccc(C[C@@H]2NC(=O)[C@H]([C@@H](C)O)NC(=O)[C@@H]3CCCC(=O)NCc4cccc(c4)C[C@H](NC(=O)[C@@H](C)NC(=O)[C@H](C)NC(=O)CCSCc4cccc(c4)CSCCNC(=O)[C@]4(C)CCCN4C2=O)C(=O)N[C@@H](Cc2c[nH]c4ccc(F)cc24)C(=O)N3)cc1
2 | 3.9 | – | COc1ccc(C[C@@H]2NC(=O)[C@H](Cc3cnc[nH]3)NC(=O)[C@H](CC(=O)O)NC(=O)[C@H](Cc3c[nH]c4ccc(F)cc34)NC(=O)[C@H](Cc3c[nH]c4ccc(F)cc34)NC(=O)[C@@H](C)NC(=O)[C@H](CCCCN)NC(=O)CCSCc3cccc(c3)CSCCNC(=O)[C@]3(C)CCCN3C2=O)cc1
3 | 4 | – | COc1ccc(C[C@@H]2NC(=O)[C@H]([C@@H](C)O)NC(=O)[C@@H]3CCCCC(=O)NCc4cccc(c4)C[C@H](NC(=O)[C@@H](C)NC(=O)[C@H](C)NC(=O)CCSCc4cccc(c4)CSCCNC(=O)[C@]4(C)CCCN4C2=O)C(=O)N[C@@H](Cc2c[nH]c4ccc(F)cc24)C(=O)N3)cc1
4 | 175 | – | COc1ccc(C[C@@H]2NC(=O)[C@H]([C@@H](C)O)NC(=O)[C@@H]3CCCCC(=O)NCc4ccc(cc4)C[C@H](NC(=O)[C@@H](C)NC(=O)[C@H](C)NC(=O)CCSCc4cccc(c4)CSCCNC(=O)[C@]4(C)CCCN4C2=O)C(=O)N[C@@H](Cc2c[nH]c4ccc(F)cc24)C(=O)N3)cc1
5 | 285 | – | COc1ccc(C[C@@H]2NC(=O)[C@H]([C@@H](C)O)NC(=O)[C@@H]3CC(=O)NCc4cccc(c4)C[C@H](NC(=O)[C@@H](C)NC(=O)[C@H](C)NC(=O)CCSCc4cccc(c4)CSCCNC(=O)[C@]4(C)CCCN4C2=O)C(=O)N[C@@H](Cc2c[nH]c4ccc(F)cc24)C(=O)N3)cc1
6 | 23.1 | – | C[C@@]12CCCN1C(=O)[C@H](Cc1ccc(O)cc1)NC(=O)[C@H](Cc1cnc[nH]1)NC(=O)[C@H](CC(=O)O)NC(=O)[C@H](Cc1c[nH]c3ccc(F)cc13)NC(=O)[C@H](Cc1c[nH]c3ccc(F)cc13)NC(=O)[C@@H](C1CCCC1)NC(=O)[C@H](CCCCN)NC(=O)CCSCc1cccc(c1)CSCCNC2=O
7 | 2.7 | 43.5 | CCC[C@H]1NC(=O)[C@H](CCCCN)NC(=O)CCSCc2cccc(c2)CSCCNC(=O)[C@]2(C)CCCN2C(=O)[C@H](Cc2ccc(O)cc2)NC(=O)[C@H](Cc2cnc[nH]2)NC(=O)[C@H](CC(=O)O)NC(=O)[C@H](Cc2c[nH]c3ccc(F)cc23)NC(=O)[C@H](Cc2c[nH]c3ccc(F)cc23)NC1=O
8 | 4.2 | – | CC(C)(C)[C@H]1NC(=O)[C@H](CCCCN)NC(=O)CCSCc2cccc(c2)CSCCNC(=O)[C@]2(C)CCCN2C(=O)[C@H](Cc2ccc(O)cc2)NC(=O)[C@H](Cc2cnc[nH]2)NC(=O)[C@H](CC(=O)O)NC(=O)[C@H](Cc2c[nH]c3ccc(F)cc23)NC(=O)[C@H](Cc2c[nH]c3ccc(F)cc23)NC1=O
9 | 2.8 | – | COc1ccc(C[C@@H]2NC(=O)[C@H]([C@@H](C)OC)NC(=O)[C@@H]3CCC(=O)NCc4cccc(c4)C[C@H](NC(=O)[C@@H](C)NC(=O)[C@H](C)NC(=O)CCSCc4cccc(c4)CSCCNC(=O)[C@]4(C)CCCN4C2=O)C(=O)NC(Cc2ccnc4ccc(F)cc24)C(=O)N3C)cc1 (stereo not given in full)
10 | – | > 48000 | C[C@@H]1NC(=O)[C@H](Cc2ccc(O)cc2)NC(=O)[C@H](Cc2cnc[nH]2)NC(=O)[C@H](CC(=O)O)NC(=O)[C@H](Cc2c[nH]c3ccc(F)cc23)NC(=O)[C@H](Cc2c[nH]c3ccc(F)cc23)NC(=O)CNC(=O)[C@H](CCCCN)NC(=O)CCSCc2cccc(c2)CSC[C@@H](C(N)=O)NC1=O ([Mpa]KG[Trp(5-F)][Trp(5-F)]DHYAC-NH2; linker 1-10 via mXylylene)
11 | – | > 48000 | CN1C(=O)[C@@H]2CCCN2C(=O)[C@H](Cc2ccc(O)cc2)NC(=O)[C@H](Cc2cnc[nH]2)NC(=O)[C@H](CC(=O)O)NC(=O)[C@H](Cc2c[nH]c3ccc(F)cc23)NC(=O)[C@H](Cc2c[nH]c3ccc(F)cc23)NC(=O)CNC(=O)[C@H](CCCCN)NC(=O)CCSCc2cccc(c2)CSC[C@H]1C(N)=O ([Mpa]KG[Trp(5-F)][Trp(5-F)]DHYP[NMeC]-NH2; linker 1-10 via mXylylene)
12 | – | 67.5 | NCCCC[C@@H]1NC(=O)CCSCc2cccc(c2)CSC[C@@H](C(N)=O)NC(=O)[C@@H]2CCN2C(=O)[C@H](Cc2ccc(O)cc2)NC(=O)[C@H](Cc2cnc[nH]2)NC(=O)[C@H](CC(=O)O)NC(=O)[C@H](Cc2c[nH]c3ccc(F)cc23)NC(=O)[C@H](Cc2c[nH]c3ccc(F)cc23)NC(=O)CNC1=O ([Mpa]KG[Trp(5-F)][Trp(5-F)]DHY[Aze]C-NH2; linker 1-10 via mXylylene)
13 | – | 969 | NCCCC[C@@H]1NC(=O)CCSCc2cccc(c2)CSC[C@@H](C(N)=O)NC(=O)[C@@H]2CCCCN2C(=O)[C@H](Cc2ccc(O)cc2)NC(=O)[C@H](Cc2cnc[nH]2)NC(=O)[C@H](CC(=O)O)NC(=O)[C@H](Cc2c[nH]c3ccc(F)cc23)NC(=O)[C@H](Cc2c[nH]c3ccc(F)cc23)NC(=O)CNC1=O ([Mpa]KG[Trp(5-F)][Trp(5-F)]DHY[Pip]C-NH2; linker 1-10 via mXylylene)
14 | – | 10700 | CN1CC(=O)N[C@H](C(N)=O)CSCc2cccc(c2)CSCCC(=O)N[C@@H](CCCCN)C(=O)NCC(=O)N[C@@H](Cc2c[nH]c3ccc(F)cc23)C(=O)N[C@@H](Cc2c[nH]c3ccc(F)cc23)C(=O)N[C@@H](CC(=O)O)C(=O)N[C@@H](Cc2cnc[nH]2)C(=O)N[C@@H](Cc2ccc(O)cc2)C1=O ([Mpa]KG[Trp(5-F)][Trp(5-F)]DHY[Sar]C-NH2; linker 1-10 via mXylylene)
15 | – | 112 | CN1C(=O)[C@H](Cc2cnc[nH]2)NC(=O)[C@H](CC(=O)O)NC(=O)[C@H](Cc2c[nH]c3ccc(F)cc23)NC(=O)[C@H](Cc2c[nH]c3ccc(F)cc23)NC(=O)CNC(=O)[C@H](CCCCN)NC(=O)CCSCc2cccc(c2)CSC[C@@H](C(N)=O)NC(=O)[C@@H]2CCCN2C(=O)[C@@H]1Cc1ccc(O)cc1 ([Mpa]KG[Trp(5-F)][Trp(5-F)]DH[NMeY]PC-NH2; linker 1-10 via mXylylene)
16 | – | > 48000 | CN1C(=O)[C@H](CC(=O)O)NC(=O)[C@H](Cc2c[nH]c3ccc(F)cc23)NC(=O)[C@H](Cc2c[nH]c3ccc(F)cc23)NC(=O)CNC(=O)[C@H](CCCCN)NC(=O)CCSCc2cccc(c2)CSC[C@@H](C(N)=O)NC(=O)[C@@H]2CCCN2C(=O)[C@H](Cc2ccc(O)cc2)NC(=O)[C@@H]1Cc1cnc[nH]1 ([Mpa]KG[Trp(5-F)][Trp(5-F)]D[NMeH]YPC-NH2; linker 1-10 via mXylylene)
17 | – | 88.3 | C[C@@H]1NC(=O)[C@@H]2CCCN2C(=O)[C@H](Cc2c[nH]c3ccc(F)cc23)NC(=O)[C@H](Cc2c[nH]c3ccc(F)cc23)NC(=O)CNC(=O)[C@H](CCCCN)NC(=O)CCSCc2cccc(c2)CSC[C@@H](C(N)=O)NC(=O)[C@]2(C)CCCN2C(=O)[C@H](Cc2ccc(O)cc2)NC1=O ([Mpa]KG[Trp(5-F)][Trp(5-F)]PAY[αMeP]C-NH2; linker 1-10 via mXylylene)
18 | – | 12900 | CN1C(=O)[C@H](Cc2c[nH]c3ccc(F)cc23)NC(=O)[C@H](Cc2c[nH]c3ccc(F)cc23)NC(=O)CNC(=O)[C@H](CCCCN)NC(=O)CCSCc2cccc(c2)CSC[C@@H](C(N)=O)NC(=O)[C@@H]2CCCN2C(=O)[C@H](Cc2ccc(O)cc2)NC(=O)[C@H](Cc2cnc[nH]2)NC(=O)[C@@H]1CC(=O)O ([Mpa]KG[Trp(5-F)][Trp(5-F)][NMeD]HYPC-NH2; linker 1-10 via mXylylene)
19 | – | 63 | CC1(c2cccc3ccccc23)NC(=O)CNC(=O)[C@H](CCCCN)NC(=O)CCSCc2cccc(c2)CSC[C@@H](C(N)=O)NC(=O)[C@@H]2CCCN2C(=O)[C@H](Cc2ccc(O)cc2)NC(=O)[C@H](Cc2cnc[nH]2)NC(=O)[C@H](CC(=O)O)NC(=O)[C@H](Cc2c[nH]c3ccc(F)cc23)NC1=O (stereo not given in full) ([Mpa]KG[X4][Trp(5-F)]DHYPC-NH2; linker 1-10 via mXylylene)
20 | – | 2210 | NCCCC[C@@H]1NC(=O)CCSCc2cccc(c2)CSC[C@@H](C(N)=O)NC(=O)[C@@H]2CCCN2C(=O)[C@H](Cc2ccc(O)cc2)NC(=O)[C@H](Cc2cnc[nH]2)NC(=O)[C@H](CC(=O)O)NC(=O)[C@H](Cc2c[nH]c3ccc(F)cc23)NC(=O)C(CCc2ccccc2)NC(=O)CNC1=O (stereo not given in full) ([Mpa]KG[ξhPhe][Trp(5-F)]DHYPC-NH2; linker 1-10 via mXylylene)
21 | – | 4090 | CN1CC(=O)N[C@@H](Cc2c[nH]c3ccc(F)cc23)C(=O)N[C@@H](Cc2c[nH]c3ccc(F)cc23)C(=O)N[C@@H](CC(=O)O)C(=O)N[C@@H](Cc2cnc[nH]2)C(=O)N[C@@H](Cc2ccc(O)cc2)C(=O)N2CCC[C@H]2C(=O)N[C@H](C(N)=O)CSCc2cccc(c2)CSCCC(=O)N[C@@H](CCCCN)C1=O ([Mpa]K[Sar][Trp(5-F)][Trp(5-F)]DHYPC-NH2; linker 1-10 via mXylylene)
22 | 11 | – | C[C@H]1NC(=O)[C@H](CCCCN)NC(=O)CCSCc2cc(F)cc(c2)CSC[C@@H](C(N)=O)NC(=O)[C@]2(C)CCCN2C(=O)[C@H](Cc2ccc(O)cc2)NC(=O)[C@H]([C@@H](C)O)NC(=O)[C@@H]2CCCN2C(=O)[C@H](Cc2c[nH]c3ccc(F)cc23)NC(=O)[C@H](Cc2c[nH]c3ccc(F)cc23)NC1=O ([Mpa]K[dA][Trp(5-F)][Trp(5-F)]PTY[αMeP]C-NH2; linker 1-10 via mXylylene(5-F))
23 | – | 342 | CN1C(=O)CCSCc2cccc(c2)CSC[C@@H](C(N)=O)NC(=O)[C@@H]2CCCN2C(=O)[C@H](Cc2ccc(O)cc2)NC(=O)[C@H](Cc2cnc[nH]2)NC(=O)[C@H](CC(=O)O)NC(=O)[C@H](Cc2c[nH]c3ccc(F)cc23)NC(=O)[C@H](Cc2c[nH]c3ccc(F)cc23)NC(=O)CNC(=O)[C@@H]1CCCCN ([Mpa][NMeK]G[Trp(5-F)][Trp(5-F)]DHYPC-NH2; linker 1-10 via mXylylene)

Row | Structure (SMILES) | Ki [1] [nM] | Ki (PCSK9/LDLR) [nM]
24 | NCCCC[C@@H]1NC(=O)CCSCc2cccc(c2)CSCCNC(=O)[C@@H]2CCCN2C(=O)[C@H](Cc2ccc(O)cc2)NC(=O)[C@H](Cc2c[nH]cn2)NC(=O)[C@H](CC(=O)O)NC(=O)[C@H](Cc2c[nH]c3ccc(F)cc23)NC(=O)[C@H](Cc2c[nH]c3ccc(F)cc23)NC(=O)CNC1=O (cyclo(DHYP[X1]KG[Trp(5-F)][Trp(5-F)])) | – | 252
